# Legend:
# [1] = molecular target: B-Raf kinase (SEQ. ID NO: 2) (Homo sapiens (Human), UniProt P15056); assay: Biochemical Assay for B-Raf (2); conditions: Table J, biochemical assay (2); read-out: BRAF (2)
# Experimental: Biochemical Assay for B-Raf (2)
# (§1) Activity of B-Raf kinase (SEQ. ID NO: 2) was determined spectroscopically using a coupled pyruvate kinase/lactate dehydrogenase assay that continuously monitors the ATP hydrolysis-dependent oxidation of NADH (e.g., Schindler et al., Science, 2000, 289, 1938-1942). Assays were conducted in 384-well plates (25 μL final volume) using 2 nM B-Raf (Sigma), 1.5 units pyruvate kinase, 2.1 units lactate dehydrogenase, 1 mM phosphoenol pyruvate, 0.7 mM NADH, 50 nM MEK (SignalChem), and 1 mM ATP in assay buffer (100 mM Tris, pH 7.5, 15 mM MgCl2, 0.5 mM DTT, 0.1% octyl-glucoside, 0.002% (w/v) BSA, and 0.002% Triton X-100). Inhibition of B-Raf was measured by adding serial diluted test compound (final assay concentration of 1% DMSO). A decrease in absorption at 340 nm was monitored hourly for 4 h at 30° C. on a multi-mode microplate reader (BioTek). The reaction rate was calculated using the 2 to 3 h time frame. The reaction rate at each concentration of compound was converted to percent inhibition using controls (i.e., reaction with no test compound and reaction with a known inhibitor) and IC50 values were calculated by fitting a four-parameter sigmoidal curve to the data using Prism (GraphPad software).
# [2] = molecular target: C-Raf kinase (SEQ. ID NO: 3) (Homo sapiens (Human), UniProt P04049, Y340D/Y341D); assay: Biochemical Assay for C-Raf (2); conditions: Table J, biochemical assay (2); read-out: CRAF (2)
# C-Raf kinase (SEQ. ID NO: 3), sequence (P04049 307-648 Y340D/Y341D): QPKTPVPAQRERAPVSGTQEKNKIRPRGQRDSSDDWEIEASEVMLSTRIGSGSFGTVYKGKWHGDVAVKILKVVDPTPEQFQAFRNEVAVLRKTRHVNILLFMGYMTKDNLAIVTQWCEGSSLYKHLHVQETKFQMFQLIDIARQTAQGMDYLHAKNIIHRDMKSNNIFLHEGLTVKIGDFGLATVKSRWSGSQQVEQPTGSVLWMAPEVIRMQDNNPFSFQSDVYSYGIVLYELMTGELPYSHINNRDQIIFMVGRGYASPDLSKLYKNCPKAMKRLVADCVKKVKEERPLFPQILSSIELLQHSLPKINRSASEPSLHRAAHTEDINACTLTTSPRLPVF
# Experimental: Biochemical Assay for C-Raf (2)
# as §1, with “of C-Raf” for “of B-Raf”, “NO: 3)” for “NO: 2)”, “using 3.84” for “using 2”, “nM C-Raf (Eurofins),” for “nM B-Raf (Sigma),”
# [3] = molecular target: A-Raf kinase (SEQ. ID No: 1) (Homo sapiens (Human), UniProt P10398, Y301D/Y302D); assay: Biochemical Assay for A-Raf (2); conditions: Table J, biochemical assay (2); read-out: ARAF (2)
# A-Raf kinase (SEQ. ID No: 1), sequence (P10398 other isoform, or with tags, fused parts or gaps Y301D (already in the parent)/Y302D (already in the parent)): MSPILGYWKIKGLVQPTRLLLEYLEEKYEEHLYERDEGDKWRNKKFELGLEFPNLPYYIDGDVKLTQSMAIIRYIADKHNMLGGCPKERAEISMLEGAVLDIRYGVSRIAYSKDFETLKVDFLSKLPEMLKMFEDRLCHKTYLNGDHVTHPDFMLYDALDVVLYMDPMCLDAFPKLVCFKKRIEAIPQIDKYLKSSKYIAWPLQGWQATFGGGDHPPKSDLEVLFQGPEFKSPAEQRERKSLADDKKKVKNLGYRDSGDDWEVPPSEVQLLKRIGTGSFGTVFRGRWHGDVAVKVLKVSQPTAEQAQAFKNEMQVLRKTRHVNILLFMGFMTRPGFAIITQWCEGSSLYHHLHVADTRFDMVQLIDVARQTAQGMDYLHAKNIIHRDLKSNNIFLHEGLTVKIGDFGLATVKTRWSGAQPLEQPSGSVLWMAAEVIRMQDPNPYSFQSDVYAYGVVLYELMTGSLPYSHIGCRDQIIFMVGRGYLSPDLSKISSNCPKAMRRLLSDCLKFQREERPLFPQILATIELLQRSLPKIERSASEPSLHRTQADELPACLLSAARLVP
# Experimental: Biochemical Assay for A-Raf (2)
# Activity of A-Raf kinase (SEQ. ID No: 1) was determined spectroscopically using a coupled pyruvate kinase/lactate dehydrogenase assay that continuously monitors the ATP hydrolysis-dependent oxidation of NADH (e.g., Schindler et al., Science, 2000, 289, 1938-1942). Assays were conducted in 384-well plates (25 μL final volume) using 20 nM A-Raf (Eurofins), 1.5 units pyruvate kinase, 2.1 units lactate dehydrogenase, 1 mM phosphoenol pyruvate, 0.7 mM NADH, 100 nM MEK (SignalChem), and 1 mM ATP in assay buffer (100 mM Tris, pH 7.5, 15 mM MgCl2, 0.5 mM DTT, 0.1% octyl-glucoside, 0.002% (w/v) BSA, and 0.002% Triton X-100). Inhibition of A-Raf was measured by adding serial diluted test compound (final assay concentration of 1% DMSO). A decrease in absorption at 340 nm was monitored hourly for 4 h at 30° C. on a multi-mode microplate reader (BioTek). The reaction rate was calculated using the 3 to 4 h time frame. The reaction rate at each concentration of compound was converted to percent inhibition using controls (i.e., reaction with no test compound and reaction with a known inhibitor) and IC50 values were calculated by fitting a four-parameter sigmoidal curve to the data using Prism (GraphPad software).
# [4] = molecular target: B-Raf (V600E) (SEQ. ID NO: 4) kinase (Homo sapiens (Human), UniProt P15056, V600E); assay: Biochemical Assay for B-Raf (V600E) (2); conditions: Table J, BRAF V600E, biochemical assay (2); read-out: BRAF VE (2)
# B-Raf (V600E) (SEQ. ID NO: 4) kinase, sequence (P15056 416-766 V600E): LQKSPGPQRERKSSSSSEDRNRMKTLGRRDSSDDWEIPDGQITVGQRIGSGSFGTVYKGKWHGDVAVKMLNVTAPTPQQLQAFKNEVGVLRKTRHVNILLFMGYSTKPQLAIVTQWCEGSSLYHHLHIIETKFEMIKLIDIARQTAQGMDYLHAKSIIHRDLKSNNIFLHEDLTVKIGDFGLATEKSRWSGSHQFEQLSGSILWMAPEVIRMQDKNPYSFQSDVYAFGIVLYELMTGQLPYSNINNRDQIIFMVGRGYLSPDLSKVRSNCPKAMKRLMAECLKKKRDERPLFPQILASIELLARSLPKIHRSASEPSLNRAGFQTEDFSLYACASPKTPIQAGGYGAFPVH
# Experimental: Biochemical Assay for B-Raf (V600E) (2)
# Activity of B-Raf (V600E) (SEQ. ID NO: 4) kinase was determined spectroscopically using a coupled pyruvate kinase/lactate dehydrogenase assay that continuously monitors the ATP hydrolysis-dependent oxidation of NADH (e.g., Schindler et al., Science, 2000, 289, 1938-1942). Assays were conducted in 384-well plates (25 μL final volume) using 0.5 nM B-Raf (deCode), 1.5 units pyruvate kinase, 2.1 units lactate dehydrogenase, 1 mM phosphoenol pyruvate, 0.7 mM NADH, 100 nM MEK (SignalChem), and 1 mM ATP in assay buffer (100 mM Tris, pH 7.5, 15 mM MgCl2, 0.5 mM DTT, 0.1% octyl-glucoside, 0.002% (w/v) BSA, and 0.002% Triton X-100). Inhibition of B-Raf (V600E) was measured by adding serial diluted test compound (final assay concentration of 1% DMSO). A decrease in absorption at 340 nm was monitored hourly for 4 h at 30° C. on a multi-mode microplate reader (BioTek). The reaction rate was calculated using the 3 to 4 h time frame. The reaction rate at each concentration of compound was converted to percent inhibition using controls (i.e., reaction with no test compound and reaction with a known inhibitor) and IC50 values were calculated by fitting a four-parameter sigmoidal curve to the data using Prism (GraphPad software).
# B-Raf kinase (SEQ. ID NO: 2), sequence (P15056 416-766): as the sequence (P15056 416-766 V600E) above, with E185V counted along it
SMILES,IC50 [1] [nM],IC50 [2] [nM],IC50 [3] [nM],IC50 [4] [nM]
[2H]C([2H])([2H])NC(=O)c1cc(-c2cc(-c3cc(NC(=O)c4ccnc(C(C)(C)F)c4)ccc3C)ccn2)ccn1 [Example 489],≤ 100,≤ 100,100 to 500,≤ 100
Cc1ccc(NC(=O)c2cccc(C(F)(F)F)c2)cc1-c1ccnc(-c2ccnc(NC(=O)C3CC3)c2)c1 [Example 502],≤ 100,≤ 100,100 to 500,≤ 100
Cc1ccc(NC(=O)c2ccnc(C(C)(C)F)c2)cc1-c1cc(-c2ccnc(C(N)=O)c2)ncc1F [Example 490],100 to 500,≤ 100,1000 to 10000,≤ 100
CC(C)(F)c1cc(C(=O)Nc2ccc(F)c(-c3ccnc(-c4ccnc(C(N)=O)c4)c3)c2)ccn1 [Example 491],≤ 100,≤ 100,1000 to 10000,≤ 100
CNC(=O)c1cc(-c2cc(-c3cc(NC(=O)c4ccnc(C5(F)CC5)c4)ccc3C)cc(C)n2)ccn1 [Example 496],100 to 500,≤ 100,1000 to 10000,≤ 100
CNC(=O)c1cc(-c2cc(-c3cc(NC(=O)c4ccnc(C(C)(C)F)c4)ccc3Cl)ccn2)ccn1 [Example 485],100 to 500,≤ 100,1000 to 10000,≤ 100
CNC(=O)c1cc(-c2cc(-c3cc(NC(=O)c4ccnc(C(C)(C)F)c4)c(F)cc3C)ccn2)ccn1 [Example 497],100 to 500,100 to 500,1000 to 10000,≤ 100
CNC(=O)c1cc(-c2cc(-c3cc(NC(=O)c4ccnc(C5(F)CC5)c4)ccc3C)ccn2)ccn1 [Example 487],≤ 100,≤ 100,100 to 500,≤ 100
CNC(=O)c1cc(-c2cc(-c3cc(NC(=O)c4ccnc(C(C)(C)F)n4)ccc3C)ccn2)ccn1 [Example 494],100 to 500,≤ 100,1000 to 10000,≤ 100
Cc1ccc(NC(=O)c2ccc(C(F)(F)F)cc2)cc1-c1ccnc(-c2ccnc(NC(=O)C3CC3)c2)c1 [Example 501],≤ 100,≤ 100,1000 to 10000,100 to 500
[2H]C([2H])([2H])NC(=O)c1cc(-c2cc(-c3cc(NC(=O)c4ccnc(C5(F)CC5)c4)ccc3C)cc(C)n2)ccn1 [Example 498],100 to 500,100 to 500,1000 to 10000,≤ 100
CNC(=O)c1cc(-c2cc(-c3cc(NC(=O)c4cnnc(C(C)(C)F)c4)ccc3C)ccn2)ccn1 [Example 495],≤ 100,≤ 100,500 to 1000,≤ 100

# Results, then the compound that gave them:
IC50 [1] [nM],IC50 [2] [nM],IC50 [3] [nM],IC50 [4] [nM],SMILES
≤ 100,≤ 100,100 to 500,≤ 100,Cc1ccc(NC(=O)c2cc(C(F)(F)F)ccc2F)cc1-c1ccnc(-c2ccnc(NC(=O)C3CC3)c2)c1 [Example 503]
≤ 100,≤ 100,500 to 1000,≤ 100,Cc1ccc(NC(=O)c2ccnc(C(C)(C)F)c2)cc1-c1cc(-c2ccnc(C(N)=O)c2)ncn1 [Example 488]
100 to 500,≤ 100,1000 to 10000,≤ 100,CNC(=O)c1cc(-c2cc(-c3cc(NC(=O)c4ccnc(C(C)(C)F)c4)ncc3C)ccn2)ccn1 [Example 499]
100 to 500,≤ 100,1000 to 10000,≤ 100,[2H]C([2H])([2H])NC(=O)c1cc(-c2cc(-c3cc(NC(=O)c4ccnc(C(C)(C)F)c4)ccc3C)cc(C)n2)ccn1 [Example 493]
≤ 100,≤ 100,1000 to 10000,≤ 100,Cc1ccc(NC(=O)c2cn(C)nc2C(F)(F)F)cc1-c1cncc(-c2ccnc(NC(=O)C3CC3)c2)c1 [Example 500]
≤ 100,≤ 100,1000 to 10000,≤ 100,CNC(=O)c1cc(-c2cc(-c3cc(NC(=O)c4cnnc(C(C)(F)F)c4)ccc3C)ccn2)ccn1 [Example 492]
100 to 500,≤ 100,1000 to 10000,≤ 100,Cc1ccc(NC(=O)c2ccnc(C(C)(C)F)c2)cc1-c1cnnc(-c2ccnc(C(N)=O)c2)c1 [Example 486]

# Reference: patent US12319655B2, “RAF kinase inhibitors and methods of use thereof” (Deciphera Pharmaceuticals, LLC, priority 2021, dated 2025)
